Source: PubChem BioAssay (NCI)
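Abbreviation: GI50, concentration required for 50% inhibition of growth. TGI marks complete inhibition of growth.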

Assays:
Experiment in all cases: growth of human tumour cells (NCI), 384-well format
[1] = system: 786-0 renal
[2] = system: A498 renal
[3] = system: A549 NSCLC
[4] = system: ACHN renal
[5] = system: CAKI-1 renal
[6] = system: CCRF-CEM leukemia
[7] = system: COLO 205 colon
[8] = system: DU-145 prostate
[9] = system: EKVX NSCLC
[10] = system: HCC-2998 colon
[11] = system: HCT-116 colon
[12] = system: HCT-15 colon
[13] = system: HL-60(TB) leukemia
[14] = system: HOP-62 NSCLC
[15] = system: HOP-92 NSCLC
[16] = system: HS 578T breast
[17] = system: HT29 colon
[18] = system: IGROV1 ovarian
[19] = system: K-562 leukemia
[20] = system: KM12 colon
[21] = system: LOX IMVI melanoma
[22] = system: M14 melanoma
[23] = system: MCF7 breast
[24] = system: MDA-MB-231 breast
[25] = system: MDA-MB-435 melanoma
[26] = system: MDA-MB-468 breast
[27] = system: MOLT-4 leukemia
[28] = system: NCI-H226 lung
[29] = system: NCI-H23 lung
[30] = system: NCI-H322M lung
[31] = system: NCI-H460 NSCLC
[32] = system: NCI-H522 lung
[33] = system: NCI/ADR-RES ovarian
[34] = system: OVCAR-3 ovarian
[35] = system: OVCAR-4 ovarian
[36] = system: OVCAR-5 ovarian
[37] = system: OVCAR-8 ovarian
[38] = system: PC-3 prostate
[39] = system: RPMI-8226 leukemia
[40] = system: SF-268 CNS
[41] = system: SF-295 CNS
[42] = system: SF-539 CNS
[43] = system: SK-MEL-28 melanoma
[44] = system: SK-MEL-5 melanoma
[45] = system: SK-OV-3 ovarian
[46] = system: SN12C renal
[47] = system: SNB-19 CNS
[48] = system: SNB-75 CNS
[49] = system: SW-620 colon
[50] = system: T-47D breast
[51] = system: TK-10 renal
[52] = system: U251 glioblastoma
[53] = system: UACC-257 melanoma
[54] = system: UACC-62 melanoma
[55] = system: UO-31 renal

In the case of `CC1(C)CC(=O)c2c(C(F)(F)F)nn(-c3ccc(C(N)=O)c(NC4CCC(OC(=O)CN)CC4)c3)c2C1` (stereo not given), the GI50 [1] is reported as 43.9 nM, the TGI [1] is reported as 11700 nM and the GI50 [2] is reported as 67.2 nM. It also gave a TGI [2] of 15100 nM, a GI50 [3] of 29 nM and a TGI [3] of 11000 nM. It also gave a GI50 [4] of 62 nM, a TGI [4] of 18100 nM and a GI50 [5] of 67.9 nM. It also gave a TGI [5] of 19600 nM, a GI50 [6] of 18.9 nM and a TGI [6] of 53.3 nM. For the same compound, the GI50 [7] was 13.7 nM, the TGI [7] was 66.7 nM and the GI50 [8] was 48.2 nM. It also gave a TGI [8] of 975 nM, a GI50 [9] of 83.1 nM and a TGI [9] of 15600 nM. The GI50 [10] was 21.4 nM, the TGI [10] was 87.4 nM and the GI50 [11] was 41.4 nM. The TGI [11] was 13000 nM, the GI50 [12] was 88.8 nM and the TGI [12] was 14200 nM. It also gave a GI50 [13] of 19.2 nM, a TGI [13] of 35.4 nM and a GI50 [14] of 41 nM. For the same compound, the TGI [14] was 20000 nM, the GI50 [15] was 28.2 nM and the TGI [15] was 89.5 nM. The GI50 [16] was 32.1 nM, the TGI [16] was 222 nM and the GI50 [17] was 24.6 nM. It also gave a TGI [17] of 11500 nM, a GI50 [18] of 18.9 nM and a TGI [18] of 74.3 nM. For the same compound, the GI50 [19] was 27.4 nM, the TGI [19] was 10200 nM and the GI50 [20] was 26.6 nM. For the same compound, the TGI [20] was 827 nM, the GI50 [21] was 17.4 nM and the TGI [21] was 33.6 nM. For the same compound, the GI50 [22] was 31.4 nM, the TGI [22] was 12000 nM and the GI50 [23] was 25.4 nM. It also gave a TGI [23] of 843 nM, a GI50 [24] of 22.7 nM and a TGI [24] of 71.7 nM. For the same compound, the GI50 [25] was 67.4 nM, the TGI [25] was 38100 nM and the GI50 [26] was 21 nM. The TGI [26] was 47.6 nM, the GI50 [27] was 11.9 nM and the TGI [27] was 25.3 nM. It also gave a GI50 [28] of 30.3 nM, a TGI [28] of 229 nM and a GI50 [29] of 21.2 nM. It also gave a TGI [29] of 68.3 nM, a GI50 [30] of 44.2 nM and a TGI [30] of 20800 nM. The GI50 [31] was 22.1 nM, the TGI [31] was 57.3 nM and the GI50 [32] was 21.2 nM. The TGI [32] was 49.3 nM, the GI50 [33] was 2350 nM and the TGI [33] was 6770 nM. For the same compound, the GI50 [34] was 25.3 nM, the TGI [34] was 88.5 nM and the GI50 [35] was 17100 nM. The TGI [35] was greater than 100000 nM, the GI50 [36] was 53.6 nM and the TGI [36] was 30200 nM. For the same compound, the GI50 [37] was 21.9 nM, the TGI [37] was 48.2 nM and the GI50 [38] was 33.6 nM. For the same compound, the TGI [38] was 135 nM, the GI50 [39] was 51.2 nM and the TGI [39] was 241 nM. For the same compound, the GI50 [40] was 12.2 nM, the TGI [40] was 36.5 nM and the GI50 [41] was 37.3 nM. The TGI [41] was 140 nM, the GI50 [42] was 18.6 nM and the TGI [42] was 43.1 nM. For the same compound, the GI50 [43] was 46.5 nM, the TGI [43] was 19300 nM and the GI50 [44] was 39.6 nM. It also gave a TGI [44] of 14000 nM, a GI50 [45] of 41.5 nM and a TGI [45] of 29500 nM. The GI50 [46] was 29.6 nM, the TGI [46] was 98.8 nM and the GI50 [47] was 47.5 nM. For the same compound, the TGI [47] was 30000 nM, the GI50 [48] was 112 nM and the TGI [48] was 506 nM. For the same compound, the GI50 [49] was 25.8 nM, the TGI [49] was 79.4 nM and the GI50 [50] was 19.5 nM. It also gave a TGI [50] of 65 nM, a GI50 [51] of 51 nM and a TGI [51] of 5310 nM. For the same compound, the GI50 [52] was 30.4 nM, the TGI [52] was 95.2 nM and the GI50 [53] was 52.8 nM. The TGI [53] was 21200 nM, the GI50 [54] was 29.7 nM and the TGI [54] was 129 nM. The GI50 [55] was 119 nM and the TGI [55] was 16300 nM.
